This note sets out measurements from patent publication EP4563579A1, “MACROCYCLIC EGFR INHIBITOR, AND PREPARATION METHOD THEREFOR AND PHARMACEUTICAL USE THEREOF” (Abbisko Therapeutics Co., Ltd., priority 2022, dated 2024).

Structures are written as SMILES.

The subject of data set [1] is Ba/F3 EGFR-DEL19-C797S (DC). Put plainly: Cell proliferation assay (CellTiter-Glo), Ba/F3 DC. Format: cell-based. The conditions noted are these: Mus musculus, BaF3; Ba/F3 EGFR-DEL19-C797S cells, 72 hour incubation, CTG readout. The method, boiled down: (§1)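 Cells seeded overnight, then exposed 72 h at 37 °C, 5% CO2 to nine 3.16-fold dilutions (top final 10 µM, 0.1% DMSO), triplicate wells. Viability read by CellTiter-Glo luminescence, with a T0 plate read at dosing; IC50 (nM) by non-linear sigmoidal regression.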

The nature of data set [2]: Pharmacokinetic experiment in mice. It is filed as in vivo. The conditions noted are these: ICR mice; for AUC(0-t) / Cmax / half-life: male, mouse, single oral administration (PO), 10 mg/kg, plasma. The source says:
The purpose of this trial is to study the pharmacokinetic behavior of some compounds of the present invention, and the administration method is: Single oral administration (PO) to ICR mice.
The compounds used in this trial are from the compounds in the specific examples of the present invention and the listed positive compounds.
ICR mice male N=9 original source: Shanghai Sippr-Bk Lab Animal Co., Ltd.
The compounds are weighed and dissolved in the corresponding solution (10% PG + 10% Solutol® + 80% pH3 citrate buffer). The mixture is then shaken well and sonicated to prepare a 1 mg/mL stock solution. Nine mice are orally administered at a dose of 10 mg/kg (or IV 2 mg/kg) after an overnight fast.
About 90 µL of blood is collected via the submandibular vein per time point, heparin sodium anticoagulant is added, the sample is placed on ice after collection, and plasma is centrifuged within 1 hour (centrifugation conditions: 8,000 rpm, 6 minutes, 2-8°C). The blood collection timepoints are 0, 0.25, 0.5, 1, 2, 4, 6, 8 and 24 h. The samples are stored in a -20°C refrigerator.
The plasma sample is 40 µL, 160 µL of ice-cold acetonitrile containing internal standard is added, vortexed for 3 minutes, and centrifuged at 11,000 rpm for 5 minutes. 100 µL of the supernatant is taken and added to 100 µL of water, 5 µL of the sample is taken and injected into LC/MS/MS for analysis.

For a further data set, the system named is A431 WT. Kind of data set: Cell proliferation assay (CellTiter-Glo), A431 WT. It is filed as cell-based. The conditions noted are these: Homo sapiens, A-431; A431 WT cells, 72 hour incubation, CTG readout. The method, boiled down:
as §1
(In general: ATP-based viability assays read luminescence as a measure of living cells.)

Data set [3] has as its system Ba/F3 EGFR-L858R-C797S (LC). Kind of data set: Cell proliferation assay (CellTiter-Glo), Ba/F3 LC. Format: cell-based. The conditions noted are these: Mus musculus, BaF3; Ba/F3 EGFR-L858R-C797S cells, 72 hour incubation, CTG readout. The method, boiled down:
as §1

The test system of data set [4] is Ba/F3 EGFR-DEL19-T790M-C797S (DTC). Kind of data set: Cell proliferation assay (CellTiter-Glo), Ba/F3 DTC. It is filed as cell-based. The conditions noted are these: Ba/F3 EGFR-DEL19-T790M-C797S cells, 72 hour incubation, CTG readout; read-out: IC50 BaF3 DTC. The method, boiled down: as §1
For data set [5], the system named is Ba/F3 EGFR-L858R-T790M-C797S (LTC). Kind of data set: Cell proliferation assay (CellTiter-Glo), Ba/F3 LTC. Format: cell-based. The note with it: Mus musculus, BaF3; Ba/F3 EGFR-L858R-T790M-C797S cells, 72 hour incubation, CTG readout. The essentials: as §1

Broadly, the IC50 is the concentration needed to halve the response being measured. For orientation: AUC(0-t) means exposure summed from dosing to a finite time, without extrapolation to infinity. The low end stands for low exposure, the high end for high exposure. For orientation: Cmax means the peak of the concentration-time curve. The term half-life denotes the time needed for the level to fall by half in the phase considered. As for `Cn1ncc2c1OCC1(CCCC1)Cn1nc(N3CC[C@H](CS(=O)(=O)C(F)(F)F)C3)c3cnc(cc31)Nc1ccnc-2n1` [Example 14, (S)-1'-methyl-3'-(3-(((trifluoromethyl)sulfonyl)methyl)pyrrolidin-1-yl)spiro[cyclopentane-1,6'-8-oxa-3-aza-4(6,1)-pyrazolo[4,3-c]pyridina-2(2,4)-pyrimidina-1(4,5)-pyrazolacyclooctaphane]], the IC50 in data set [1] was found to be 2.8 nM; with A431 WT, 1720 nM; in data set [3] it was 5 nM; in data set [4], 3.5 nM; in data set [5], 3.6 nM. In addition, in data set [2], the AUC(0-t) turned out to be 5320 ng·h/mL. In data set [2], the Cmax came out at 882 ng/mL. Besides, the half-life in data set [2] was 2.4 h.
Turning to `CCS(=O)(=O)C[C@@H]1CCN(c2nn3c4cc(ncc24)Nc2ccnc(n2)-c2cnn(C)c2OCC2(CCCC2)C3)C1` [Example 29, (R)-3' -(3-((ethylsulfonyl)methyl)pyrrolidin-1-yl)-1'-me thylspiro(cyclopentane-1,6' -8-oxa-3-aza-4(6,1)-pyrazolo[4,3-c]pyridina-2(2,4)-pyrimidina-1(4,5)-pyrazolacyclooctaphane)], the IC50 in data set [1] turned out to be 1.6 nM; in the data set on A431 WT, 622 nM; in data set [3] it was 9.6 nM; in data set [4] it was 1.8 nM; in data set [5], 4 nM. In data set [2], this compound gave an AUC(0-t) of 4540 ng·h/mL. Further, the Cmax in data set [2] was 1400 ng/mL. In addition, the half-life in data set [2] is 0.66 h.
On to `Cn1ncc2c1OCC1(CCCC1)Cn1nc(N3CC[C@H](CS(C)(=O)=O)C3)c3cnc(cc31)Nc1ccnc-2n1` [Example 34, (S)-1'methyl-3'-(3-((methylsulfonyl)methyl)pyrrolidin-1-yl)spiro(cyclopentane-1,6 '-8-oxa-3-aza-4(6,1)-pyrazolo[4,3-c]pyridina-2(2,4)-pyrimidina-1(4,5)-pyrazolacyclooctaphane)], for which the IC50 in data set [1] was 0.7 nM; in the data set on A431 WT, 375 nM; in data set [3], 2.7 nM; in data set [4], 1.6 nM; in data set [5], 1.4 nM. This compound came in with an AUC(0-t) in data set [2] of 2390 ng·h/mL. In addition, the peak level in data set [2] (Cmax) was 694 ng/mL. This compound showed a half-life in data set [2] of 4.7 h.
In the case of `CN1CCC(C#Cc2nn3c4cc(ncc24)Nc2ccnc(n2)-c2cnn(C)c2OCC2(CCCC2)C3)CC1` [Example 1, 1'-methyl-3'-((1-methylpiperidin-4-yl)ethynyl)spiro(cyclopentane-1,6'-8-oxa-3-aza-4(6,1)-pyrazolo[4,3-c]pyridina-2(2,4)-pyrimidina-1(4,5)-pyrazolacyclooctaphane)], the IC50 in data set [1] stood at 7.9 nM; with A431 WT, 323 nM; in data set [3], 17.4 nM; in data set [4] it was 7.2 nM; in data set [5], 10.5 nM. This compound displayed an AUC(0-t) in data set [2] of 1030 ng·h/mL. The compound also showed a Cmax in data set [2] of 88.2 ng/mL. For the same compound, the half-life in data set [2] is 3.5 h.
In the case of `CN1CCC(C#Cc2nn3c4cc(ncc24)Nc2ccnc(n2)-c2cnn(C)c2OCC2(CCCCC2)C3)CC1` [Example 3, 1'-methyl-3'-((1-methylpiperidin-4-yl)ethynyl)spiro(cyclohexane-1,6'-8-oxa-3-aza-4(6,1)-pyrazolo[4,3-c]pyridina-2(2,4)-pyrimidina-1(4,5)-pyrazolacyclooctaphane)], the IC50 in data set [1] turned out to be 19.4 nM; in the data set with A431 WT, 439 nM; in data set [3], 30.6 nM; in data set [4], 6.8 nM; in data set [5] it was 10.4 nM. In data set [2], the AUC(0-t) was 3920 ng·h/mL. For the same compound, the concentration in data set [2] peaked (Cmax) at 307 ng/mL. In data set [2], this compound gave a half-life of 5.6 h.
With `Cn1ncc2c1OCC1(CCCCC1)Cn1nc(N3CC[C@H](CS(=O)(=O)C4CC4)C3)c3cnc(cc31)Nc1ccnc-2n1` [Example 41, (S)-3'-(3-((cyclopropylsulfonyl)methyl)pyrrolidin-1-yl)-1'-methylspiro(cyclohexane-1,6'-8-oxa-3-aza-4(6,1)-pyrazolo[4,3-c]pyridina-2(2,4) -pyrimidina-1(4,5)-pyrazolacyclooctaphane)], the half-inhibitory concentration (IC50) came to 15.9 nM in data set [1]; 564 nM in the data set with A431 WT; 12.9 nM in data set [3]; 5.2 nM in data set [4]; 3.1 nM in data set [5]. Also, the AUC(0-t) in data set [2] stood at 7110 ng·h/mL. The compound also gave a Cmax in data set [2] of 1920 ng/mL. The half-life in data set [2] is 2.3 h.
Regarding `CCS(=O)(=O)C[C@H]1CCN(c2nn3c4cc(ncc24)Nc2ccnc(n2)-c2cnn(C)c2OCC2(CCCCC2)C3)C1` [Example 37, (S)-1'-methyl-3'-(3-((ethylsulfonyl)methyl)pyrrolidin-1-yl)spiro(cyclohexane-1,6'-8-oxa-3-aza-4(6,1)-pyrazolo [4,3-c]pyridina-2(2,4)-pyrimidina-1(4,5)-pyrazolacyclooctaphane)], the IC50 in data set [1] worked out at 6.1 nM; in the data set on A431 WT, 554 nM; in data set [3], 15.8 nM; in data set [4] it was 3.2 nM; in data set [5], 6.4 nM. Moreover, in data set [2], the AUC(0-t) came out at 10100 ng·h/mL. Also, the Cmax in data set [2] came out at 2070 ng/mL. This compound showed a half-life in data set [2] of 3.1 h.
Take `CCS(=O)(=O)C[C@H]1CCN(c2nn3c4cc(ncc24)Nc2ccnc(n2)-c2cnn(C)c2OCC2(CCCC2)C3)C1` [Example 35, (S)-3'-(3-((ethylsulfonyl)methyl)pyrrolidin-1-yl)-1'-met hylspiro(cyclopentane-1,6'-8-oxa-3-aza-4(6,1)-pyrazolo [4,3-c]pyridina-2(2,4)-pyrimidina-1(4,5)-pyrazolacyclooctaphane)]: the IC50 in data set [1] came out at 0.9 nM; with A431 WT it was 345 nM; in data set [3], 2.2 nM; in data set [4], 0.7 nM; in data set [5], 1 nM. Besides, the “Oral F” value in data set [2] (PO 10 mg/kg (IV 2 mg/kg)) turned out to be 81.5%. The AUC(0-t) in data set [2] was determined as 5570 ng·h/mL. In addition, in data set [2], the highest level (Cmax) was 1500 ng/mL. The compound also gave a half-life in data set [2] of 2.6 h.
For the compound `Cn1ncc2c1OCC1(CCCC1)Cn1nc(N3CC[C@H](NC(=O)C4CC4)C3)c3cnc(cc31)Nc1ccnc-2n1` [Example 54, (S)-N-(1-(1'-methylspiro(cyclopentane-1,6'-8-oxa-3-aza-4(6,1)-pyrazolo[4,3-c]pyridina-2(2,4)-pyrimidina-1(4,5) -pyrazolacyclooctaphane)-3' -yl)pyrrolidin-3-yl)cyclopropanecarboxamide], the IC50 in data set [1] came out at 12.1 nM; in the data set with A431 WT, 654 nM; in data set [3] it was 31.6 nM; in data set [4] it was 8.7 nM; in data set [5], 12 nM. In data set [2], this compound showed an AUC(0-t) of 1730 ng·h/mL. The compound also displayed a Cmax in data set [2] of 412 ng/mL. Also, the half-life in data set [2] was 1.3 h.
